Measurements from BindingDB's records for doi:10.7270/Q29Z939R (The Scripps Research Institute Molecular Screening Center, 2009).

Each compound was assayed against T1, Core protein (Hepacivirus C, UniProt Q2Q167) (assay: HCV core protein dimerization inhibitors, dose response, biochemical, TR-FRET (AID 2159)).
T1 sequence (Q2Q167 whole entry): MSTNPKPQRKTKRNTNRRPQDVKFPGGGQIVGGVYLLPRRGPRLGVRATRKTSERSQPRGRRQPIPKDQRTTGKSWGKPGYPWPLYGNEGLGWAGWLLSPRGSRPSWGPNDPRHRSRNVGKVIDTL

IC50, > 49.8 µM:
Cc1cc(C)n2c(SCC(=O)C(C#N)c3nc4ccccc4[nH]3)nnc2n1 (configuration not stated) [2-(1,3-dihydrobenzimidazol-2-ylidene)-4-[(5,7-dimethyl-[1,2,4]triazolo[4,3-a]pyrimidin-3-yl)sulfanyl]-3-oxidanylidene-butanenitrile], COc1cccc(CN=Nc2ncnc3c2[nH]c2ccc(C)cc23)c1OC [SMR000439805], O=[N+]([O-])c1cc([CH+][N-]n2c(O)csc2=S)ccc1Cl [3-[(4-chloranyl-3-nitro-phenyl)methylideneamino]-2-sulfanylidene-1,3-thiazolidin-4-one], O=C1Nc2ccc([N+](=O)[O-])cc2/C1=N/NC(=O)c1cc(-c2ccccc2Cl)nc2ccccc12 [2-(2-chlorophenyl)-N'-(2-keto-5-nitro-indol-3-yl)cinchoninohydrazide], Cc1cccc2c1NC(=O)C2=NNc1ccc(S(=O)(=O)Nc2ccc(Cl)cc2)cc1[N+](=O)[O-] [MLS000393762], CCOC1=CC(=Cc2c(-c3ccccc3)[nH]n(-c3nc(-c4ccc(Br)cc4)cs3)c2=O)C=CC1=O, Cc1sccc1C1C(C#N)C(=N)SC(=N)C1C#N (configuration not stated) [2,6-diamino-4-(2-methyl-3-thiophenyl)-4H-thiopyran-3,5-dicarbonitrile]
